Assays:
MC38 tumor = assay: Anti-tumor activity and survival in MC38 mouse tumor model; assay type: in vivo; details: for inhibitory activity against MC38 tumor growth: MC38 mice, i.p., antibody drugs 150 μg per mouse, D18 25 μg per mouse, schedule Table 1
From the text: (§1) A. Treatment with ADC HE-S2, single administration of anti-PD-L1 antibody, D18, or anti-PD-L1 THIOMAB, and anti-PD-L1 antibody/D18 combined administration for inhibitory activity against mouse MC38 tumor growth. B. Whole animal survival study. The ordinate of the curve represents the percentage of tumor-bearing mice that remained alive after different days, and the abscissa thereof represents the number of experimental days. C. Treatment with ADC HE-S2, single administration of anti-PD-L1 antibody, D18, or anti-PD-L1 THIOMAB, and anti-PD-L1 antibody/D18 combined administration for inhibitory activity against mouse MC38 tumor growth. Student's t test was used to compare significant differences between the groups, and p<0.001 is represented by ***.
To verify the anti-cancer activity of ADC HE-S2, the inventors first made a mouse model with MC38. After the tumor was loaded, a visible tumor could be observed on the mouse surface for about one week. When the mean tumor tissue volume of the mice reached 100 mm^3, the mice were randomly grouped as follows according to the final type of drug administered: IgG isotype control antibody group (abbreviated as IgG), anti-PD-L1 antibody group (anti-PD-L1), anti-PD-L1 THIOMAB group (Thiomab), D18 group (D18), D18/anti-PD-L1 antibody combination treatment group (anti-PD-L1 & D18), and ADC HE-S2 group (ADC HE-S2), with 7-8 mice per group. The IgG isotype control antibody group, the anti-PD-L1 antibody (i.e., avelumab as described in Example 2) group, and the anti-PD-L1 THIOMAB (i.e., mutant antibody prepared in Example 2) group were administered twice a week via intraperitoneal injection of 150 μg per mouse for each time. The D18 group was administered twice a week via intraperitoneal injection of 25 μg per mouse for each time. In the D18/anti-PD-L1 antibody combination treatment group, the anti-PD-L1 antibody was dosed twice a week, 150 μg per mouse for each time; the D18 was dosed […], 25 μg per mouse for each time; in the ADC HE-S2 group, ADC HE-S2 was dosed once a week via intraperitoneal injection of 150 μg per mouse for each time; the anti-PD-L1 antibody was dosed once a week, staggered from the administration of the ADC, via intraperitoneal injection of 150 μg per mouse for each time.
(§2) Dosage: Antibody drugs, administered 150 μg per mouse for each time, and D18, administered 25 μg per mouse for each time. - means no administration on the day. * Only mice with MC38 tumor model were allowed to be administered until the 24th day, and mice with B16 tumor model were no longer administered after the 21st day.

B16 melanoma = assay: Anti-tumor activity in B16 melanoma mouse model; assay type: in vivo; details: B16 mice, i.p.; antibody drugs 150 μg, D18 25 μg per mouse; dosing to day 21
From the text: as §1
B16 melanoma is a tumor with low PD-L1 level and certain drug resistance to PD-1/PD-L1 blocking treatment. As a result, as expected by the inventors, the inhibitory effect of each drug on B16 melanoma was reduced relative to the MC38 tumor.
as §2

[1] = Effect of drug treatment on body weight of healthy mice; assay type: in vivo, mouse; details: antibody drugs 150 μg, D18 25 μg per dose
Method: Mice were treated with ADC HE-S2, anti-PD-L1 antibody+D18 in combination, anti-PD-L1 antibody alone, D18 alone, and isotype IgG, and their body weight variations were recorded. The time of administration for each drug is indicated by the arrow. Student's t test was used to compare significance differences between groups, wherein p<0.05 is represented by *. p<0.01 is represented by **, and no significance difference is represented by ns.
Then, the inventors examined the effect of each group of drug treatment on the body weight of mice in a mouse model to determine the toxic and side effects of the drugs used, and the results are shown in FIG. 17. Healthy mice were divided into an ADC group, an anti-PD-L1 antibody+D18 group, an anti-PD-L1 antibody group, a D18 group and an IgG group according to the administration, with 5 mice per group. The mode and dose of administration for each group of mice were the same as those in the mouse tumor model experiment: in the ADC group, ADC HE-S2 was dosed once a week, and the anti-PD-L1 antibody was […], 150 μg for each time; D18 was dosed once a week, 25 μg for each time; the anti-PD-L1 antibody and the IgG isotype antibody were dosed twice a week, 150 μg for each time.

murine PD-L1 = murine PD-L1 (Mus musculus, UniProt Q9EP73); details: Deng et al., 2016; cited from earlier work
Chain of murine PD-L1 (Q9EP73 19-290): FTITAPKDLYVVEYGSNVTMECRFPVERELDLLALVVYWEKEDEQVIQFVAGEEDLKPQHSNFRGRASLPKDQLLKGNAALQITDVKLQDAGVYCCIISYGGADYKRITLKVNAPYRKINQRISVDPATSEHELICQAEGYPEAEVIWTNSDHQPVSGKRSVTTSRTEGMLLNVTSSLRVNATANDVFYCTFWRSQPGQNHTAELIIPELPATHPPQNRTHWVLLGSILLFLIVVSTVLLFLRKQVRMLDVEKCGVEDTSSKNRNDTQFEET

Compound | inhibitory activity against MC38 tumor growth (MC38 tumor) | survival rate of mice (MC38 tumor; until day 70) | inhibitory effect on B16 melanoma (B16 melanoma) | body weight change of the mice after administration [1] | cross-reaction with murine PD-L1 (murine PD-L1)
CCCCNc1nc(N)nc2ccc(Cc3ccc(CN(C)C)cc3)nc12 [D18, N^4-butyl-6-(4-((dimethylamino)methyl)benzyl)pyridine[3,2-d]pyriproxyfen-2,4-diamine] | slightly superior to the efficacy of the IgG isotype antibody | 1/8 | almost comparative to that of the IgG isotype antibody | some decreases in body weight | –
anti-PD-L1 antibody: fully humanized IgG1 type monoclonal anti-PD-L1 antibody drug avelumab [reference compound] | slightly superior to the efficacy of the IgG isotype antibody | – | almost comparative to that of the IgG isotype antibody | almost consistent with that of the blank control IgG group | cross-react with murine PD-L1

— patent publication US20240252670A1, “ANTIBODY DRUG CONJUGATE, PREPARATION METHOD THEREFOR AND APPLICATION THEREOF” (TSINGHUA UNIVERSITY, priority 2021, published 2024)
